Measurements taken from PubChem BioAssay (NCI).
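The compound was tested at five concentrations on cells cultured in 96-well plates, with a 48-hour exposure period. GI50: concentration for 50% inhibition of growth. TGI is the concentration that stops growth completely.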

Key:
Assay in all cases: growth of human tumour cells (NCI), 48 h
MALME-3M melanoma = test system: MALME-3M melanoma
DU-145 prostate = test system: DU-145 prostate
ACHN renal = test system: ACHN renal
OVCAR-8 ovarian = test system: OVCAR-8 ovarian
SNB-75 CNS = test system: SNB-75 CNS
MDA-MB-435 = test system: MDA-MB-435
NCI-H522 lung = test system: NCI-H522 lung
CCRF-CEM leukemia = test system: CCRF-CEM leukemia
OVCAR-5 ovarian = test system: OVCAR-5 ovarian
U251 CNS = test system: U251 CNS

SMILES	GI50 (MALME-3M melanoma) [µM]	TGI (MALME-3M melanoma) [µM]	GI50 (DU-145 prostate) [µM]	TGI (DU-145 prostate) [µM]	GI50 (ACHN renal) [µM]	TGI (ACHN renal) [µM]	GI50 (OVCAR-8 ovarian) [µM]	GI50 (SNB-75 CNS) [µM]	TGI (SNB-75 CNS) [µM]	GI50 (MDA-MB-435) [µM]	TGI (MDA-MB-435) [µM]	GI50 (NCI-H522 lung) [µM]	TGI (NCI-H522 lung) [µM]	GI50 (CCRF-CEM leukemia) [µM]	TGI (CCRF-CEM leukemia) [µM]	GI50 (OVCAR-5 ovarian) [µM]	TGI (OVCAR-5 ovarian) [µM]	GI50 (U251 CNS) [µM]	TGI (U251 CNS) [µM]	TGI (OVCAR-8 ovarian) [µM]
COc1ccc(Nc2c3ccccc3nc3occ(Cl)c23)cc1	0.0124	14.7	0.0874	22	1.44	> 100	0.0476	0.0908	> 100	< 0.01	< 0.0317	< 0.0119	6.92	0.0199	0.416	0.269	> 100			
NC(N)=NCCCCCNc1noc(Cc2c[nH]c3cc(Br)ccc23)n1	8.34	35	20.4	> 100	39.9	> 100	10.4			19.3	62.7	13.6	46.5	13.9	39.5	24.9	> 100	2.78	14.9	> 100
CC1CCC(=O)C(C(=O)CC2CC(=O)NC(=O)C2)C1 (stereo not drawn)		> 100		> 100		> 100			> 100		> 100				> 100		> 100		> 100	> 100
COc1ccc2c(c1)[C@@]13CCCC[C@H]1[C@@H](C2)N(C)CC3=O		33.1		45.2		30.4					42.7		32.9		73.6		33.3		58.9	42.1
N#CC(=NCCO)C1=C(O)c2ccccc2C1=O		> 100		> 100		> 100			> 100		> 100		> 100				> 100		> 100	> 100
CCOC(=O)c1c[nH]c2oc(/C=N/N3CC(CN4CCOCC4)OC3=O)cc2c1=O (stereo not drawn)		> 100		> 100		> 100			> 100		> 100				> 100		> 100		> 100	> 100
CC(=O)/C=C/c1ccc(C#Cc2ccccc2)s1	20.5	40.7	10.8	24	16.3	29.8	19			13.8	29.5	12.7	25.4	22.2	47.6	15.9	29.7	16.8	30.5	57.3
Cc1cc(I)cc(CN(C)CCCN2CCOCC2)c1O	16.2	32.9	> 100	> 100	> 100	> 100	> 100	21	87.4	26	> 100					45.3	> 100	36.3	> 100	> 100
O=C(CSC(c1ccccc1)c1ccccc1)N/N=C/c1ccc(Cl)cc1Cl	16	42	32.9	93.5	26.6	66.3	37.9			29.6	79.2	12.4	59.2	31.5	> 100	31.6	> 100	24	67.3	> 100
CCCCC1(CN2CCOCC2)S/C(=N/c2nc(CC(=O)OCC)cs2)NC1=O (stereo not drawn)	25.4	> 100	27	> 100	33.9	> 100	33.9	29.4	> 100	30.3	> 100	32.1	> 100			35.4	> 100	33.9	> 100	> 100
COc1cc(C2=C(c3cn(C)c4ccccc34)COC2=O)cc(OC)c1OC	0.474	14.7	0.211	> 100			0.338	0.0438	0.522	0.0244	0.0875	0.0485	0.716	0.0592	> 100	0.479	> 100	0.0731	> 100	> 23.6
N=C(N)SCc1cccc(-c2nc3ccccc3c(=O)o2)c1		> 100		> 100		> 100			> 100		> 100		> 100				> 100		> 100	> 100
